Where two headings read alike, the source gives them in different places.
Key:
[1] = for Relative stability in whole blood and plasma: whole blood versus plasma; for Length of time for which stability is assumed: whole blood
[2] = plasma
[3] = format: physicochemical; settings: −80 °C

| Structure (SMILES) | Relative stability in whole blood and plasma [1] | Length of time for which stability is assumed ([1]; 4°C) [h 4 °C] | Length of time for which stability is assumed ([1]; RT (room temperature)) [h RT] | Length of time for which stability is assumed ([2]; 4°C) [h 4 °C] | Length of time for which stability is assumed ([2]; RT (room temperature)) [h RT] | Length of time for which stability is assumed ([2]; −20°C, W = week) [W−20 °C] | Length of time for which stability is assumed ([2]; −80°C, M = month) [M−80 °C] | Stock solution stable for up to [3] [months] |
| --- | --- | --- | --- | --- | --- | --- | --- | --- |
| C[C@]1(Cn2ccnn2)[C@H](C(=O)O)N2C(=O)C[C@H]2S1(=O)=O [Tazobactam, tazobactam] | more stable in whole blood than in plasma | 48 | 24 | 24 | 8 | 1 |  |  |
| CCN1CCN(C(=O)N[C@@H](C(=O)N[C@@H]2C(=O)N3[C@@H]2SC(C)(C)[C@@H]3C(=O)O)c2ccccc2)C(=O)C1=O [Piperacillin, piperacillin] |  | 48 | 24 | 24 | 5 | 1 |  |  |
| CC(C)(O/N=C(\C(=O)N[C@@H]1C(=O)N2C(C(=O)[O-])=C(C[n+]3ccccc3)CS[C@H]12)c1csc(N)n1)C(=O)O [Ceftazidime, ceftazidime] |  |  |  | 8 |  |  |  |  |
| CO/N=C(\C(=O)N[C@@H]1C(=O)N2C(C(=O)O)=C(COC(C)=O)CS[C@H]12)c1csc(N)n1 [Cefotaxime, cefotaxime] |  | 48 | 24 | 48 | 8 |  | 8 |  |
| CO/N=C(\C(=O)N[C@@H]1C(=O)N2C(C(=O)[O-])=C(C[N+]3(C)CCCC3)CS[C@H]12)c1csc(N)n1 [Cefepime, cefepime] |  | 48 | 24 | 8 | 5 | 1 | 8 |  |
| Cc1nnc(SCC2=C(C(=O)O)N3C(=O)[C@@H](NC(=O)Cn4cnnn4)[C@H]3SC2)s1 [Cefazolin, cefazolin] | stable in both matrices | 48 | 24 | 48 | 24 | 2 | 8 |  |
| Cc1onc(-c2c(F)cccc2Cl)c1C(=O)N[C@@H]1C(=O)N2[C@@H]1SC(C)(C)[C@@H]2C(=O)O [Flucloxacillin, flucloxacillin] | more stable in plasma | 8 | 8 | 24 | 8 | 2 | 8 |  |
| C[C@@H](O)[C@H]1C(=O)N2C(C(=O)O)=C(S[C@@H]3CN[C@H](C(=O)N(C)C)C3)[C@H](C)[C@H]12 [Meropenem, meropenem] | more stable in whole blood than in plasma | 48 | 8 | 24 | 8 | 1 | 8 |  |
| CC(=O)NC[C@H]1CN(c2ccc(N3CCOCC3)c(F)c2)C(=O)O1 [Linezolid, linezolid] | stable in both matrices | 48 | 24 | 48 | 24 | 2 | 8 | 20 |
